Measured values reported in patent US10010525B2, “Methods of inducing anesthesia” (The Regents of the University of California, priority 2012, dated 2018).
Where two headings read alike, the source gives them in different places.

Assays:
[1] = biological target: T1, NMDA (NR1/NR2A) receptors (Rattus norvegicus, UniProt P35439+Q00959); experiment: NMDA receptor two-electrode voltage clamp in oocytes at saturated drug concentration; assay type: cell-based; settings: saturating aqueous concentration
T1 construct: expressed in transfected cells; host or cells: Xenopus laevis oocytes (RNA injection, 1:1)
T1 sequence (Q00959 23-1464, other chains not shown): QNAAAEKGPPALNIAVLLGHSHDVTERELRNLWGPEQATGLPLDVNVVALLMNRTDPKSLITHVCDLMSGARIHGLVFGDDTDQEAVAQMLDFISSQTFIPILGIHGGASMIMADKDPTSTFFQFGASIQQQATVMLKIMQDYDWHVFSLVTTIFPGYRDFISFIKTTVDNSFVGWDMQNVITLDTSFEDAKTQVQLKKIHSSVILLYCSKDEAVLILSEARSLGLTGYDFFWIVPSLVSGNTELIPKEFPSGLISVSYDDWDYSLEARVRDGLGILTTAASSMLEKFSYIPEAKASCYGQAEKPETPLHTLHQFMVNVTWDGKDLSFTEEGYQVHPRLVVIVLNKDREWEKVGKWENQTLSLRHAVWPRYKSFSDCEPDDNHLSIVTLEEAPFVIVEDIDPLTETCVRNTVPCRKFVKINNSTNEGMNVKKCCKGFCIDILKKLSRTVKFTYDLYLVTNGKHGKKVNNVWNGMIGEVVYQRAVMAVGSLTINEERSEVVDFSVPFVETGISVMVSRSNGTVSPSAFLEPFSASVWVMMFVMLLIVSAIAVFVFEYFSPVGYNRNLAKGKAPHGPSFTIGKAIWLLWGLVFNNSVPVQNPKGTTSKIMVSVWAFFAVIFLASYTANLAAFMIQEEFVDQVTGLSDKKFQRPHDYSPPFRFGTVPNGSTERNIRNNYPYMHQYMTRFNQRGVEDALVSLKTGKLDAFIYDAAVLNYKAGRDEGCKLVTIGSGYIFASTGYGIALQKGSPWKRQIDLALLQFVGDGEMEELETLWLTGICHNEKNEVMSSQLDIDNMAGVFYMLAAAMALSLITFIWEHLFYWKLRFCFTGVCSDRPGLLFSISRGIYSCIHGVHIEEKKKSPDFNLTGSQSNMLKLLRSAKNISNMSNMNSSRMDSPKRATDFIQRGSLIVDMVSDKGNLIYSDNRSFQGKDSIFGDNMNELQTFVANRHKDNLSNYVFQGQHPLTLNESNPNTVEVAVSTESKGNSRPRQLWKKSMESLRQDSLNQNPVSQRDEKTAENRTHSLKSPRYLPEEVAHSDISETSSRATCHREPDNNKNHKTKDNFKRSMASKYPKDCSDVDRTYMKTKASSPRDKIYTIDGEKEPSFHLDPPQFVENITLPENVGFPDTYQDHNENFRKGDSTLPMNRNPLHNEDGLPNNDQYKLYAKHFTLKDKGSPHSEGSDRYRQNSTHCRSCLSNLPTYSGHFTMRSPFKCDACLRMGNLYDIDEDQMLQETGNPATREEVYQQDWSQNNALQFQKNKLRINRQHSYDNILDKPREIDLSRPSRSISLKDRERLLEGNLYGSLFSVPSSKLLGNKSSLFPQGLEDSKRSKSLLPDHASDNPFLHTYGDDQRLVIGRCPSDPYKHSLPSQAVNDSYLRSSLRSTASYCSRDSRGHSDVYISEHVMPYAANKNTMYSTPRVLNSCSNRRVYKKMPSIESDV
Source text: (§1) GABAA (α1β2γ2s) or NMDA (NR1/NR2A) receptors were expressed in oocytes and studied using standard two-electrode voltage clamp techniques. Hydrocarbons from 14 different organic functional groups were studied at saturated concentrations, and compounds within each group differed only by the carbon number at the ω-position or within a saturated ring. An effect on GABAA or NMDA receptors was defined as a 10% or greater reversible current change from baseline that was statistically different from zero.
(§2) An ovary from tricaine-anesthetized Xenopus laevis frogs was surgically removed using a protocol approved by the Institutional Animal Care and Use Committee at the University of California, Davis. Following manual disruption of the ovarian lobule septae, the ovary was incubated in 0.2% Type I collagenase (Worthington Biochemical, Lakewood, N.J.) to defolliculate oocytes which were washed and stored in fresh and filtered modified Barth's solution composed of 88 mM NaCl, 1 mM KCl, 2.4 mM NaHCO3, 20 mM HEPES, 0.82 mM MgSO4, 0.33 mM Ca(NO3)2, 0.41 mM CaCl2, 5 mM sodium pyruvate, gentamycin, penicillin, streptomycin, and corrected to pH=7.4. All salts and antibiotics were A.C.S. grade (Fisher Scientific, Pittsburgh, Pa.).
(§3) Clones used were provided as a gift from Dr. R. A. Harris (University of Texas, Austin) and were sequenced and compared to references in the National Center for Biotechnology Information database to confirm the identity of each gene. GABAA receptors were expressed using clones for the human GABAA α1 and the rat GABAA β2 and γ2s subunits in pCIS-II vectors. […] In separate oocytes, glutamate receptors were expressed using rat NMDA NR1 clones in a pCDNA3 vector and rat NMDA NR2A clones in a Bluescript vector. RNA encoding each subunit was prepared using a commercial transcription kit (T7 mMessage mMachine, Ambion, Austin, Tex.) was mixed in a 1:1 ratio, and 1-10 ng of total RNA was injected into oocytes and studied 1-2 days later.
Briefly, baseline perfusion solutions were the same as for GABAA with the substitution of equimolar BaCl2 for calcium salts and the addition of 0.1 mM EGTA; this constituted barium frog Ringer's solution (BaFR). Agonist solutions for NMDA studies also contained 0.1 mM glutamate (E) and 0.01 mM glycine (G) to constitute a BaFREG solution.
The syringe pump and perfusion chamber apparatus as well as the clamp holding potential and baseline-agonist exposure protocols were identical to that described for the GABAA studies. The same test compounds, concentrations, and preparative methods were used in NMDA voltage clamp studies as in the GABAA voltage clamp studies (Table 2).
(§4) Modulating drug responses were calculated as the percent of the control (baseline) peak as follows: 100·ID/IB, where ID and IB were the peak currents measured during agonist+drug and agonist baseline perfusions, respectively. When present, direct receptor activation by a drug was similarly calculated as a percent of the agonist response. […] A lack of receptor response (cut-off) was defined as a<10% change from baseline current that was statistically indistinguishable from zero using a two-tailed Student t-test.

[2] = biological target: T2, GABAA (α1β2γ2s) receptors (UniProt P14867+P18508+P63138); experiment: GABAA receptor two-electrode voltage clamp in oocytes at saturated drug concentration; assay type: cell-based, human α1, rat β2 and γ2s; settings: saturating aqueous concentration
T2 construct: expressed in transfected cells; host or cells: Xenopus laevis oocytes (intranuclear plasmid injection, α1:β2:γ2 = 1:1:10)
T2 sequence (P14867 28-456): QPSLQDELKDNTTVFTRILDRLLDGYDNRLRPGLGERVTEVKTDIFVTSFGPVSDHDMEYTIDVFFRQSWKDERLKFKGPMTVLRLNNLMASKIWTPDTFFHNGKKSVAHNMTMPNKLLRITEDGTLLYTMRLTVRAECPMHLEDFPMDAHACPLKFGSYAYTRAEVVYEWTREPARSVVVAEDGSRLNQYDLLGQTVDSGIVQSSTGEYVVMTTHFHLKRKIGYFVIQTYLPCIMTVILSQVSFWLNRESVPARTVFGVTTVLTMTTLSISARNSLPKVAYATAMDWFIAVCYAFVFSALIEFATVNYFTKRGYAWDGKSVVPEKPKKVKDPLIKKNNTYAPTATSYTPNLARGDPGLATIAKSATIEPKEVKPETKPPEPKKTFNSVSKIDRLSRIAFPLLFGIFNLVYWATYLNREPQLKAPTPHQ
T2 sequence (P63138 25-474 limits assumed): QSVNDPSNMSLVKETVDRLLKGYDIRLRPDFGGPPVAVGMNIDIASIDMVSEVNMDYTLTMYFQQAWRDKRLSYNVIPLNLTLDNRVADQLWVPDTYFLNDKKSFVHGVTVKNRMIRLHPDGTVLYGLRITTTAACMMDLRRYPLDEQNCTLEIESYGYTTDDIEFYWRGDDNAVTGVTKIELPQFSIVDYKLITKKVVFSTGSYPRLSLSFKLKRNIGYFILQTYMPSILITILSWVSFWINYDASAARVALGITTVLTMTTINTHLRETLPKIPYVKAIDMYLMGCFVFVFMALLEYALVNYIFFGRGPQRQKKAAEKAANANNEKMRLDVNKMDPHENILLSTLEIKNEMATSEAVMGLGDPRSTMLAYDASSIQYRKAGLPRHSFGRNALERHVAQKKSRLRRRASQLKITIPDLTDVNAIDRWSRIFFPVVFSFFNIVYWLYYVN
T2 sequence (P18508 39-466): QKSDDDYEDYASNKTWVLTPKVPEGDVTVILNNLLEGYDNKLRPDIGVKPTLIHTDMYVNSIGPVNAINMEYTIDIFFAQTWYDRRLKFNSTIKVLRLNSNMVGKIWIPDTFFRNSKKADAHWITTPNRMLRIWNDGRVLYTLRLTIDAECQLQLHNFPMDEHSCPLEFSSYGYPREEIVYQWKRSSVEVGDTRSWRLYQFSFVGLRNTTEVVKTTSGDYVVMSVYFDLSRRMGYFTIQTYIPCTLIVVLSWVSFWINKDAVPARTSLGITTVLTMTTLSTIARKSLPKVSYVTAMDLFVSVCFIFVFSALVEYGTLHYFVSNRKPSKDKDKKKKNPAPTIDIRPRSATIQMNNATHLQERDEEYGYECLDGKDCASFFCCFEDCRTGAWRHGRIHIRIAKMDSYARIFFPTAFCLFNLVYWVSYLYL
Source text: as §1, §2, §3
Oocytes were studied in a 250 μL linear-flow perfusion chamber with solutions administered by syringe pump at 1.5 ml/min with gastight glass syringes and Teflon tubing. Oocyte GABAA currents were studied using standard two-electrode voltage clamping techniques at a holding potential of […] using a 250 μL channel linear-flow perfusion chamber with solutions administered by syringe pump at 1.5 mL/min.
After FR perfusion for 5 min, oocytes were exposed to 30 sec FR-GABA followed by another 5 min FR washout; this was repeated until stable GABAA-elicited peaks were obtained. Next, FR containing a saturated solution of the study drug (Table 2)—or for gaseous study compounds a vapor pressure equal to 90% of barometric pressure with balance oxygen—was used to perfuse the oocyte chamber for 2 min followed by perfusion with a FR-GABA solution containing the identical drug concentration for 30 sec.
as §4

[3] = Loss of righting reflex in Sprague-Dawley rats (inhaled agent); assay type: in vivo
Procedure: 1,1,2,2,3,3,4,5-octafluorocyclopentane (CAS#828-35-3) caused a loss of righting reflex in 4 healthy Sprague-Dawley rats at a concentration of 3.3±0.4 (mean±SD) percent of 1 atmosphere. […] After discontinuing the agent, rats were awake and ambulatory in less than 1 minute. […] Despite a lack of NMDA receptor effects, 1,1,2,2,3,3,4,5-octafluorocyclopentane is able to produce the desired pharmacologic endpoints of unconsciousness and immobility that appears similar to desirable effects produced by conventional agents.

glycine receptors = experiment: Glycine receptor modulation in vitro; assay type: cell-based
[4] = tested on: inhibitory potassium channels; experiment: Inhibitory potassium channel modulation in vitro; assay type: cell-based; settings: some inhibitory potassium channels
[5] = Loss of righting reflex in mice (inhaled agent); assay type: in vivo
Procedure: (§5) HFCP caused loss of righting reflex (a surrogate measure of unconsciousness) in 4 healthy ND4 mice at 1.0±0.2 (mean±SD) percent of 1 atmosphere. […] After 2 hours of anesthesia, mice were awake after about 1 minute of discontinuing HFCP administration. […] Despite a lack of NMDA receptor effects, 1,1,2,2,3,3,4-heptafluorocyclopentane is able to produce the desired pharmacologic endpoints of unconsciousness and immobility that appears similar to desirable effects produced by conventional agents.

[6] = aqueous phase; Tadpole; cited from earlier work
[7] = tested on: 3-transmembrane (TM3) and 4-transmembrane (TM4) receptors; settings: grouped by calculated molar solubility in unbuffered water at 25° C.; cited from earlier work
[8] = Histopathology of heart, lung, kidney and liver tissues after anesthesia; assay type: in vivo, ND4 mice; settings: collected 2 days later
Procedure: as §5

Stability in soda lime = assay type: physicochemical
Source text: Divalent bases (and sometimes monovalent bases) are used for CO2 absorption in anesthetic circuits; clinically-useful agents must therefore be stable in the presence of strong bases. […] Anesthetics should also be resistant to hydrolysis and redox reactions in vivo. Compounds with ester linkages can be thermally unstable or hydrolysed by plasma and tissue cholinesterases; and those compounds resistant to hydrolysis may likely cause undesirable inhibition of these enzymes (which are essential for metabolism of other drugs). Therefore, compounds with ester linkages are not preferred. Anesthetics with non-aromatic unsaturated carbon linkages have been used historically (fluroxene, isopropenyl vinyl ether, trichloroethylene, vinethylene, ethylene) and shown to undergo extensive metabolism that for some agents was associated with toxicity. Agents containing double or triple carbon bonds are not preferred.

[9] = aqueous phase; Human; cited from earlier work
GABAA receptor = settings: 365 μM ketamine; cited from earlier work
[10] = read-out: Aqueous EC50; aqueous phase; Rat; cited from earlier work
NMDA receptor = settings: read-out: IC50, inhibition of NMDA receptor currents; cited from earlier work
oocyte = experiment: Cytotoxicity during oocyte electrophysiology studies; assay type: cell-based, Xenopus laevis
Source text: These compounds are not preferred. Other structures previously known to be highly toxic to animals or humans (such as silanes and boranes) are not preferred.

FC1C(F)C(F)(F)C(F)(F)C1(F)F (stereo not shown) [1,1,2,2,3,3,4,5-octafluorocyclopentane]
NMDA receptor modulation (in words) [1]: no effect
GABAA receptor modulation (in words) [2]: potentiates
concentration causing loss of righting reflex ([3]; 4 healthy Sprague-Dawley rats, mean±SD, inhaled): 3.3±0.4% of 1 atmosphere
excitement or coughing during anesthetic induction ([3]; rats): without excitement or coughing
time to awake and ambulatory after discontinuing the agent ([3]; rats): less than 1 minute
glycine receptor modulation (in words) (glycine receptors): potentiates
inhibitory potassium channel modulation (in words) [4]: potentiates

FC1C(F)(F)C(F)(F)OC1(F)C(F)(F)F (stereo not shown) [2,2,3,3,4,5-hexafluorotetrahydro-5-(trifluoromethyl)-furan]
concentration causing loss of righting reflex ([5]; mice): 1-10%

ClC(Cl)Cl [Chloroform]
EC50 [6]: 1300 µM

Cc1cccc([C@H](C)c2cnc[nH]2)c1C [Dexmedetomidine]
EC50 [6]: 7 µM

CCOCC [Diethyl ether]
EC50 [6]: 25000 µM
ion channel modulation, TM3 versus TM4 receptors (FIG. 2) [7]: modulate both 3-transmembrane (TM3) and TM4 receptors

CCOC(=O)c1cncn1[C@H](C)c1ccccc1 [Etomidate]
EC50 [6]: 3 µM
ion channel modulation, TM3 versus TM4 receptors (FIG. 2) [7]: modulate 4-transmembrane receptors (TM4) or neither receptor type

FC1CC(F)(F)C(F)(F)C1(F)F (stereo not shown) [HFCP, 1,1,2,2,3,3,4-heptafluorocyclopentane]
NMDA receptor modulation (in words) [1]: no effect
GABAA receptor modulation (in words) [2]: potentiates
concentration causing loss of righting reflex ([5]; 4 healthy ND4 mice, mean±SD, inhaled): 1.0±0.2% of 1 atmosphere
excitement or coughing during anesthetic induction ([5]; mice): no excitement or coughing
time to awake after discontinuing administration ([5]; mice, after 2 hours of anesthesia): about 1 minute
histopathology of heart, lung, kidney and liver tissues [8]: no evidence of inflammation or toxicity
glycine receptor modulation (in words) (glycine receptors): potentiates
inhibitory potassium channel modulation (in words) [4]: potentiates
stability in soda lime (Stability in soda lime): stable in soda lime

FC(F)(F)C(Cl)Br (stereo not shown) [Halothane]
EC50 [6]: 230 µM
ion channel modulation, TM3 versus TM4 receptors (FIG. 2) [7]: modulate both 3-transmembrane (TM3) and TM4 receptors

FC(F)OC(Cl)C(F)(F)F (stereo not shown) [Isoflurane]
EC50 [6]: 290 µM
ion channel modulation, TM3 versus TM4 receptors (FIG. 2) [7]: modulate both 3-transmembrane (TM3) and TM4 receptors

CNC1(c2ccccc2Cl)CCCCC1=O (stereo not shown) [Ketamine]
EC50 [9]: 2 µM
increase of GABAA receptor currents (GABAA receptor): 56%
ion channel modulation, TM3 versus TM4 receptors (FIG. 2) [7]: modulate both 3-transmembrane (TM3) and TM4 receptors

COC(F)(F)C(Cl)Cl [Methoxyflurane]
EC50 [6]: 210 µM
ion channel modulation, TM3 versus TM4 receptors (FIG. 2) [7]: modulate both 3-transmembrane (TM3) and TM4 receptors

FC1(F)OC(F)(F)C(F)(F)C(F)(F)C1(F)F [Perfluorotetrahydropyran]
concentration causing loss of righting reflex ([5]; mice): 1-10%

CC(C)c1cccc(C(C)C)c1O [Propofol]
ion channel modulation, TM3 versus TM4 receptors (FIG. 2) [7]: modulate both 3-transmembrane (TM3) and TM4 receptors
EC50 [10]: 2000 nM
IC50 (NMDA receptor): 160 µM

CCCC(C)C1(CC)C(=O)NC(=S)NC1=O (stereo not shown) [Thiopental]
EC50 [9]: 25 µM

C[C@]12N[C@H](Cc3ccccc31)c1ccccc12 [dizocilpine]
ion channel modulation, TM3 versus TM4 receptors (FIG. 2) [7]: modulate both 3-transmembrane (TM3) and TM4 receptors

FC(F)OC(F)(F)C(F)Cl (stereo not shown) [enflurane]
ion channel modulation, TM3 versus TM4 receptors (FIG. 2) [7]: modulate both 3-transmembrane (TM3) and TM4 receptors

CCO [ethanol]
ion channel modulation, TM3 versus TM4 receptors (FIG. 2) [7]: modulate both 3-transmembrane (TM3) and TM4 receptors

Cc1ncc2n1-c1ccc(Cl)cc1C(c1ccccc1F)=NC2 [midazolam]
ion channel modulation, TM3 versus TM4 receptors (FIG. 2) [7]: modulate 4-transmembrane receptors (TM4) or neither receptor type

[N-]=[N+]=O [nitrous oxide]
ion channel modulation, TM3 versus TM4 receptors (FIG. 2) [7]: modulate both 3-transmembrane (TM3) and TM4 receptors

CCCCCCCCC [nonane]
ion channel modulation, TM3 versus TM4 receptors (FIG. 2) [7]: modulate 4-transmembrane receptors (TM4) or neither receptor type

C1CCNC1 [pyrrolidine]
cytotoxicity during oocyte electrophysiology studies (oocyte): cytotoxicity

FCOC(C(F)(F)F)C(F)(F)F [sevoflurane]
ion channel modulation, TM3 versus TM4 receptors (FIG. 2) [7]: modulate both 3-transmembrane (TM3) and TM4 receptors

CCCCCCCCCCCO [undecanol]
ion channel modulation, TM3 versus TM4 receptors (FIG. 2) [7]: modulate 4-transmembrane receptors (TM4) or neither receptor type
